Holding throughout (assay): NCI tumour cell line growth inhibition, 48 h
For test [1], the system named is TK-10 renal.
The test system of test [2] is KM20L2 colon.
The subject of test [3] is DMS 273 small cell lung.
The test system of test [4] is M19-MEL melanoma.
Test [5] relates to COLO 205 colon.
The test system of test [6] is DLD-1 colon.
For test [7], the system named is DMS 114 small cell lung.
The test system of test [8] is XF 498 CNS.
Test [9] concerns HOP-18 NSCLC.
Test [10] deals with OVCAR-8 ovarian.
The test system of test [11] is P388/ADR leukemia.
For test [12], the system named is P388 leukemia.
Test [13] has as its system NCI-H23 lung.
The subject of test [14] is SK-MEL-2 melanoma.
The subject of test [15] is SN12K1 renal.
For test [16], the system named is HCT-15 colon.
The test system of test [17] is SNB-78 CNS.
Test [18] has as its system LXFL 529 NSCLC.

Where “and” joins values, the source holds several entries; their conditions need not be identical. Equal values may be shown once.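 A five-concentration, 48-hour dose response in 96-well plates underlies each endpoint, interpolated linearly between surrounding concentrations. GI50: concentration for 50% inhibition of growth. TGI marks complete inhibition of growth.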 Bounds are passed on as bounds.

For the molecule `CC1CCC2(C(=O)O)CCC3(C)C(=CCC4C5(C)CCC(O)C(C)(C)C5CCC43C)C2C1C` (centres undefined), the TGI in test [1] was 43.9 µM; in test [2] it was 17.5 µM; in test [3], 22 µM; in test [4], 18.9 µM; in test [5] it was 26.3 µM and 28.3 µM; in test [6], 17 µM. In addition, the TGI in [7] is 21.5 µM; in [8], 11.7 µM; in [9] it was 34.4 µM; in [10] it was 21 µM and 35.2 µM; in [11], 17.8 µM; in test [12] it was 9.48 µM. Besides, the TGI is 24.4 µM and 34.3 µM in test [13]; 19 µM and 30.2 µM in test [14]; 12.9 µM in test [15]; 15.4 µM and 26.6 µM in [16]; 29.3 µM in test [17]. The GI50 in test [16] was 5.53 µM and 13.3 µM.
As for `CC(C)(C)OC(=O)NCCc1cccc2c1oc1c(CCC(=O)O)cccc12`, the TGI in [18], in test [1], in test [2], in [3], in [4] and in test [5] was above 100 µM throughout. The TGI in test [6], in test [7], in test [8], in test [9], in [10] and in [13] was above 100 µM each time. The TGI in [14], in test [16] and in test [17] was above 100 µM in each case.
For `CNC(=O)SCC(N)C(=O)O` (centres undefined), the TGI in test [2], in test [3], in [5], in test [6], in test [7] and in test [8] was above 100 µM throughout. The TGI in test [9] was above 100 µM; in test [10] it was above 100 µM; in [11] it was 58 µM; in test [12] it was 39.1 µM; in test [13], above 100 µM; in test [14], above 100 µM. In addition, the TGI in [15], in test [16] and in [17] was above 100 µM in each case.
`C/C=C/C1=CC(=O)C(O)C1O` (centres undefined): the TGI in test [2] was above 80.9 µM; in [3], 98.9 µM; in test [4], 113 µM; in test [5] it was 51.8 µM; in test [6], 122 µM; in test [7] it was 72.5 µM. Further, the TGI in test [8] is 45.6 µM; in test [9] it was 27.1 µM; in [10] it was 79.9 µM; in test [11], 113 µM; in [12] it was 141 µM; in test [13], above 77.9 µM. The TGI came out at 133 µM in [14], 84.2 µM in [15], 97.2 µM in test [16] and 173 µM in [17].

For the origin of these results see PubChem BioAssay (NCI).
